Data reported in publication PMC10525854 (Biomedicines, 2023).
≈ marks a conversion by molar mass, not a printed value.

How the values were obtained:
[1] = test system: A375 human melanoma cell lines; experiment: Cytotoxicity SRB assay; type: cell-based; conditions: A-375, 48 h of incubation (method says 72 h)
Description: Cell viability was assessed by SRB assay as reported [47]. […] Melanoma cells were mixed with TCA (10%) and maintained at 4 °C for 1 h, then washed with D.W. Sulforhodamine B (70 μL) (0.4% w/v) was added and kept for 10 min. Plates were washed by 1% acetic acid 3 times and left to dry overnight. TRIS (150 μL) was added to dissolve the protein-bound SRB stain. Lastly, absorbance was determined by a star Omega microplate reader (BMGLABTECH®-FLUO, Ortenberg, Germany) at 540 nm [48, 49]. Cytotoxicity was expressed as (IC50), which was determined by plotting %viability against the concentration of the drug (five concentrations were used). IC50 values were calculated from the dose–response curve by the PRISM program.

[2] = Solubility of ACF in different media; type: physicochemical; conditions: thermodynamic from solid
Description: The mixture was shaken using a vortex mixer (Heidolph Instrument, D-91126 Schwabach, type RZR 2021, Bavaria, Germany) for 15 min, followed by storage at room temperature. After 24 h, the resulting solution was subjected to centrifugation at 3000 rpm for 5 min to separate the clear supernatant. A suitable sample solution was collected and diluted with absolute methanol. The diluted sample was filtered using Whatman 102 filter paper and further diluted with absolute methanol for the determination of the drug concentration in the saturated solution. Analysis of the samples was performed using a UV spectrophotometer (DU 640; Beckman, CA, USA) at a wavelength of 276 nm, with methanol as the blank reference.

solubility at 24 h ([2]; oil or lipid, citronellol oil, room temperature): 5.26 mg/mL (≈ 14.9 mM)
solubility at 24 h ([2]; organic solvent or mixture, Transcutol HP, room temperature): 300 mg/mL (≈ 848 mM)
solubility at 24 h ([2]; Tween 80, room temperature): 62.6 mg/mL (≈ 177 mM)
solubility at 24 h ([2]; water, room temperature): 0.071 mg/mL (≈ 0.2 mM)
SMILES: O=C(O)COC(=O)Cc1ccccc1Nc1c(Cl)cccc1Cl [ACF, Aceclofenac]
IC50 [1]: 69.3 µg/mL (≈ 0.196 mM)
